ChEMBL document CHEMBL3745619, “Preparation and optimization of pyrazolo[1,5-a]pyrimidines as new potent PDE4 inhibitors” (Bioorg Med Chem Lett, 2016)

Tests used:
Phosphodiesterase 4 [1] = target: T1, Phosphodiesterase 4 (Homo sapiens, UniProt P27815+Q08499+Q07343+Q08493); assay: Inhibition of PDE4 in human SHSY-5Y cells assessed as suppression of cAMP hydrolysis by HTRF assay in presence of dye d2 labelled cAMP; type: cell-based; conditions: sh-sy5y
[2] = target: 3',5'-cyclic-AMP phosphodiesterase 4B (Homo sapiens, UniProt Q07343); assay: Inhibition of human recombinant PDE4B1 expressed in insect Sf9 cells by fluorescence capillary-electrophoresis assay
[3] = target: cGMP-inhibited 3',5'-cyclic phosphodiesterase 3A (Homo sapiens, UniProt Q14432); assay: Inhibition of human recombinant PDE3 by fluorescence capillary-electrophoresis assay
Phosphodiesterase 4 [4] = target: T1, Phosphodiesterase 4; assay: Inhibition of PDE4 in human SHSY-5Y cells assessed as suppression of cAMP hydrolysis at 10 uM by HTRF assay in presence of dye d2 labelled cAMP; type: cell-based; conditions: SH-SY5Y

3',5'-cyclic-AMP phosphodiesterase 4B, sequence (Q07343 whole entry): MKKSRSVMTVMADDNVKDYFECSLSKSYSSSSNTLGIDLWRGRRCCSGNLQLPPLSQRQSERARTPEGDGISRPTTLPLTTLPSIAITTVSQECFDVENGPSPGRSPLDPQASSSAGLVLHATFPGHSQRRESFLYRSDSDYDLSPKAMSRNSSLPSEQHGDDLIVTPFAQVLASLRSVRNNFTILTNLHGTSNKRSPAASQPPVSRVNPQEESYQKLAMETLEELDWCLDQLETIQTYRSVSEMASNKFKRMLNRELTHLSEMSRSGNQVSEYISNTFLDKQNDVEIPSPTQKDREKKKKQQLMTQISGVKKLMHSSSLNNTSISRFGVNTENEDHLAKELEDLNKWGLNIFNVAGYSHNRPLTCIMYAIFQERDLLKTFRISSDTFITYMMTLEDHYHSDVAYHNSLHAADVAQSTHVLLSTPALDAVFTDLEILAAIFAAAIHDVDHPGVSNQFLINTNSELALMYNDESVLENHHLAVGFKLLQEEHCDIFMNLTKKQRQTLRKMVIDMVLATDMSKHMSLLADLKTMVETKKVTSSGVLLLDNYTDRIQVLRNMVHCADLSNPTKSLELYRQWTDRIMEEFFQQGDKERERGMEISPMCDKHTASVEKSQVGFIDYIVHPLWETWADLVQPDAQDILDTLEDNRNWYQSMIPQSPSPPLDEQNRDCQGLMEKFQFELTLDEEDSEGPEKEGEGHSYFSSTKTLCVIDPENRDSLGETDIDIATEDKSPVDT
cGMP-inhibited 3',5'-cyclic phosphodiesterase 3A, sequence (Q14432 whole entry): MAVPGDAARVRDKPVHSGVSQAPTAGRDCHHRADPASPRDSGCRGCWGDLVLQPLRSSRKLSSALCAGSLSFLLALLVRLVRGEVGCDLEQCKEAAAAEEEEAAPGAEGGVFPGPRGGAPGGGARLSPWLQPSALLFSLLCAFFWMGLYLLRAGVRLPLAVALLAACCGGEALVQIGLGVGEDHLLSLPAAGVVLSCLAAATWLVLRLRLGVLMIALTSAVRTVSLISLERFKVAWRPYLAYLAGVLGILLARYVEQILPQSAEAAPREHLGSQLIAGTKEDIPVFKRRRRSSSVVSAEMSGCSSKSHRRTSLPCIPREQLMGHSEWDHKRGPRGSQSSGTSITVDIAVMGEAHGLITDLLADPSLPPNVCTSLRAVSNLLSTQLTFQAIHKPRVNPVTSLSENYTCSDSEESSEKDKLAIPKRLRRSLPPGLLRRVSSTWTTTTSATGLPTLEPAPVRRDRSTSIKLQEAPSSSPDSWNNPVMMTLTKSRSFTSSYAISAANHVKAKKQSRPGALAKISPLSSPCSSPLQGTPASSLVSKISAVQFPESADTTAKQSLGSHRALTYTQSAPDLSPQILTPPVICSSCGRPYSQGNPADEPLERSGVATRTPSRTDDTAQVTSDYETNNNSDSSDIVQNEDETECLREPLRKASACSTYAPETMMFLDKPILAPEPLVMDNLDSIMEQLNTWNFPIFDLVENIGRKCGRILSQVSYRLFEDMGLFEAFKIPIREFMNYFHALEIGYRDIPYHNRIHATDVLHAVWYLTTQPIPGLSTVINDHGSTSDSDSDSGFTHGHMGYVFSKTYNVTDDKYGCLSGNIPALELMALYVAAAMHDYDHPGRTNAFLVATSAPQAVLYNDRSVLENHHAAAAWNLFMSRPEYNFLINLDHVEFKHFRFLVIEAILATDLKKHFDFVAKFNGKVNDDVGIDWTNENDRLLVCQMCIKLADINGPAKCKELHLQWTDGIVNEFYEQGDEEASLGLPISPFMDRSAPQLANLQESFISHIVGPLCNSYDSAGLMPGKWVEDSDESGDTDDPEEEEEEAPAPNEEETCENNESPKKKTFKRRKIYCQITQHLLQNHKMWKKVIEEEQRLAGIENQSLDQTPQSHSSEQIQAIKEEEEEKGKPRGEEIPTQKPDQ

| Structure (SMILES) | IC50 (Phosphodiesterase 4 [1]) | IC50 [2] | IC50 [3] | inhibition (Phosphodiesterase 4 [4]) |
| --- | --- | --- | --- | --- |
| COc1cccc(Nc2c(C(N)=O)cnc3c(C)cnn23)c1 | > 10000 nM | 165 nM | > 10000 nM | < 50% |
| COc1cccc(Nc2c(C(N)=O)cnc3c(C(C)C)c(S(C)(=O)=O)nn23)c1 | 270 nM | 5 nM | – | – |
| COc1cccc(Nc2c3c(nc4c(C)c(S(C)(=O)=O)nn24)CCNC3=O)c1 | 8 nM | 0.1 nM | – | – |
| COc1cccc(Nc2c(C(N)=O)cnc3c(C)c(S(C)(=O)=O)nn23)c1 | 1820 nM | 26 nM | – | – |
| CCc1cnn2c(Nc3cccc(OC)c3)c(C(N)=O)cnc12 | 5400 nM | 38 nM | – | – |
| Cc1c(S(C)(=O)=O)nn2c(Nc3cc(Cl)cc(Cl)c3)c3c(nc12)CCNC3=O | 5 nM | 0.03 nM | – | – |
| CSc1nn2c(Nc3cc(Cl)cc(Cl)c3)c3c(nc2c1C)CCNC3=O | 480 nM | 0.2 nM | – | – |
| Cc1cnn2c(Nc3ccccc3)c(C(N)=O)cnc12 | > 10000 nM | 1950 nM | – | – |
| CNC(=O)c1cnc2c(C)cnn2c1Nc1cccc(OC)c1 | > 10000 nM | > 10000 nM | – | – |

The next lines start with the values.

| IC50 (Phosphodiesterase 4 [1]) | IC50 [2] | IC50 [3] | inhibition (Phosphodiesterase 4 [4]) | Structure (SMILES) |
| --- | --- | --- | --- | --- |
| > 10000 nM | 16 nM | – | – | Cc1cnn2c(Nc3cc(Cl)cc(Cl)c3)c(C(N)=O)cnc12 |
| 5600 nM | 7 nM | – | – | Cc1c(S(=O)(=O)c2ccccc2)nn2c(Nc3cc(Cl)cc(Cl)c3)c(C(N)=O)cnc12 |
| 507 nM | 6 nM | – | – | CC(C)c1c(S(C)(=O)=O)nn2c(Nc3cc(Cl)cc(Cl)c3)c(C(N)=O)cnc12 |
| 1500 nM | 7 nM | – | – | Cc1c(S(C)(=O)=O)nn2c(Nc3cc(Cl)cc(Cl)c3)c(C(N)=O)cnc12 |
| 629 nM | 0.7 nM | – | – | COc1cccc(Nc2c(C(N)=O)cnc3c(C)c(S(=O)(=O)c4cccc(C(=O)N(C)C)c4)nn23)c1 |
| 130 nM | 0.2 nM | – | – | Cc1c(S(=O)(=O)c2cccc(C(=O)N(C)C)c2)nn2c(Nc3cc(Cl)cc(Cl)c3)c(C(N)=O)cnc12 |
| 243 nM | 4 nM | – | – | COc1cccc(Nc2c(C(N)=O)cnc3c(C)c(S(=O)(=O)c4ccccc4)nn23)c1 |
